Measurements reported in PubChem BioAssay (NCI).
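In this assay, cells in 96-well plates receive the compound at five concentrations for 48 hours. Endpoints are linearly interpolated between the surrounding concentrations. GI50: concentration for 50% inhibition of growth. TGI: concentration producing complete growth inhibition.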

Tests used:
Assay in all cases: inhibition of tumour cell growth, NCI panel, 48 h
[1] = tested on: 786-0 renal
[2] = tested on: A498 renal
[3] = tested on: A549 NSCLC
[4] = tested on: ACHN renal
[5] = tested on: BT-549 breast
[6] = tested on: CAKI-1 renal
[7] = tested on: CCRF-CEM leukemia
[8] = tested on: DU-145 prostate
[9] = tested on: EKVX NSCLC
[10] = tested on: HCC-2998 colon
[11] = tested on: HCT-116 colon
[12] = tested on: HCT-15 colon
[13] = tested on: HL-60(TB) leukemia
[14] = tested on: HOP-62 NSCLC
[15] = tested on: HOP-92 NSCLC
[16] = tested on: HS 578T breast
[17] = tested on: HT29 colon
[18] = tested on: K-562 leukemia
[19] = tested on: KM12 colon
[20] = tested on: LOX IMVI melanoma
[21] = tested on: M14 melanoma
[22] = tested on: MALME-3M melanoma
[23] = tested on: MCF7 breast
[24] = tested on: MDA-MB-231 breast
[25] = tested on: MDA-MB-435
[26] = tested on: MOLT-4 leukemia
[27] = tested on: NCI-H23 lung
[28] = tested on: NCI-H460 lung
[29] = tested on: NCI/ADR-RES ovarian
[30] = tested on: OVCAR-3 ovarian
[31] = tested on: OVCAR-5 ovarian
[32] = tested on: OVCAR-8 ovarian
[33] = tested on: PC-3 prostate
[34] = tested on: RPMI-8226 leukemia
[35] = tested on: RXF 393 renal
[36] = tested on: SF-268 CNS
[37] = tested on: SF-295 CNS
[38] = tested on: SF-539 CNS
[39] = tested on: SK-MEL-28 melanoma
[40] = tested on: SK-MEL-5 melanoma
[41] = tested on: SK-OV-3 ovarian
[42] = tested on: SN12C renal
[43] = tested on: SNB-75 CNS
[44] = tested on: SR leukemia
[45] = tested on: SW-620 colon
[46] = tested on: T-47D breast
[47] = tested on: TK-10 renal
[48] = tested on: U251 CNS
[49] = tested on: UACC-257 melanoma
[50] = tested on: UACC-62 melanoma
[51] = tested on: UO-31 renal

For `COC[C@]12CC[C@@H](C)[C@H](C)[C@H]1C1=CC[C@@H]3[C@@]4(C)CCCNC(C)(C)[C@@H]4CC[C@@]3(C)[C@]1(C)CC2`, the GI50 [1] was 1.69 µM, the TGI [1] was 3.21 µM and the GI50 [2] was 1.51 µM. It also gave a TGI [2] of 3.38 µM, a GI50 [3] of 1.8 µM and a TGI [3] of 3.77 µM. For the same molecule, the GI50 [4] was 1.78 µM, the TGI [4] was 3.22 µM and the GI50 [5] was 1.8 µM. The TGI [5] was 3.6 µM, the GI50 [6] was 1.75 µM and the TGI [6] was 3.36 µM. The GI50 [7] was 1.67 µM, the TGI [7] was 4.2 µM and the GI50 [8] was 1.93 µM. It also gave a TGI [8] of 3.41 µM, a GI50 [9] of 1.7 µM and a TGI [9] of 3.42 µM. The GI50 [10] was 1.76 µM, the TGI [10] was 3.38 µM and the GI50 [11] was 1.49 µM. It also gave a TGI [11] of 2.92 µM, a GI50 [12] of 1.51 µM and a TGI [12] of 3.16 µM. It also gave a GI50 [13] of 1.28 µM, a TGI [13] of 3.05 µM and a GI50 [14] of 1.73 µM. It also gave a TGI [14] of 3.55 µM, a GI50 [15] of 1.54 µM and a TGI [15] of 4.36 µM. For the same molecule, the GI50 [16] was 2.04 µM, the TGI [16] was 4.85 µM and the GI50 [17] was 1.58 µM. The TGI [17] was 3.26 µM, the GI50 [18] was 1.05 µM and the TGI [18] was 2.81 µM. It also gave a GI50 [19] of 1.86 µM, a TGI [19] of 3.43 µM and a GI50 [20] of 1.13 µM. For the same molecule, the TGI [20] was 2.49 µM, the GI50 [21] was 1.77 µM and the TGI [21] was 3.57 µM. The GI50 [22] was 1.74 µM, the TGI [22] was 3.61 µM and the GI50 [23] was 1.54 µM. For the same molecule, the TGI [23] was 3.37 µM, the GI50 [24] was 1.81 µM and the TGI [24] was 3.4 µM. The GI50 [25] was 1.65 µM, the TGI [25] was 3.11 µM and the GI50 [26] was 1.3 µM. It also gave a TGI [26] of 3.03 µM, a GI50 [27] of 1.8 µM and a TGI [27] of 3.62 µM. It also gave a GI50 [28] of 1.72 µM, a TGI [28] of 3.35 µM and a GI50 [29] of 1.78 µM. The TGI [29] was 3.57 µM, the GI50 [30] was 1.83 µM and the TGI [30] was 3.29 µM. The GI50 [31] was 1.81 µM, the TGI [31] was 3.32 µM and the GI50 [32] was 2.19 µM. It also gave a TGI [32] of 4.94 µM, a GI50 [33] of 1.49 µM and a TGI [33] of 3.38 µM. For the same molecule, the GI50 [34] was 2.19 µM, the TGI [34] was 5.19 µM and the GI50 [35] was 1.54 µM. The TGI [35] was 3.02 µM, the GI50 [36] was 1.92 µM and the TGI [36] was 3.74 µM. For the same molecule, the GI50 [37] was 1.88 µM, the TGI [37] was 3.57 µM and the GI50 [38] was 1.6 µM. For the same molecule, the TGI [38] was 3.03 µM, the GI50 [39] was 1.81 µM and the TGI [39] was 3.34 µM. It also gave a GI50 [40] of 1.71 µM, a TGI [40] of 3.11 µM and a GI50 [41] of 5.13 µM. It also gave a TGI [41] of 19.8 µM, a GI50 [42] of 3.09 µM and a TGI [42] of 11.8 µM. It also gave a GI50 [43] of 1.77 µM, a TGI [43] of 4.77 µM and a GI50 [44] of 1.48 µM. The TGI [44] was 3.25 µM, the GI50 [45] was 1.8 µM and the TGI [45] was 3.58 µM. It also gave a GI50 [46] of 1.87 µM, a TGI [46] of 4.39 µM and a GI50 [47] of 1.87 µM. For the same molecule, the TGI [47] was 3.52 µM, the GI50 [48] was 1.72 µM and the TGI [48] was 3.43 µM. The GI50 [49] was 2.05 µM, the TGI [49] was 4.46 µM and the GI50 [50] was 1.71 µM. For the same molecule, the TGI [50] was 3.19 µM, the GI50 [51] was 1.57 µM and the TGI [51] was 3.2 µM.
